In general, Ki refers to a measure of affinity in units of concentration, obtained from inhibition or displacement.

From patent US9079895B2, “Morpholino compounds, uses and methods” (University of Dundee, priority 2012, dated 2015) come the findings set out here.

Settings in all cases: average of at least two experiments
Experiment [1] deals with Alpha1B adrenergic receptor (Homo sapiens (Human), UniProt P35368). Description: Secondary radioligand binding assay, Alpha1B. More on the design: key to Ki Alpha1B: “—” indicates that a binding interaction was not detected. The source says: 1. Secondary Radioligand Binding Assays The detailed experimental protocols for the radioligand and functional receptor assays are available on the NIMH PDSP website at http://pdsp.med.unc.edu/UNC-CH %20Protocol %20Book.pdf. Raw data (dpm) representing total radioligand binding (i.e. specific+non-specific binding) are plotted as a function of the logarithm of the molar concentration of the competitor (i.e. test or reference compound). […] C. Adrenergic Receptors: α1A, α1B, α2A, α2B, α2C, β1, β2, β3 Assay Buffers: For α1 receptors, α1 Binding Buffer (20 mM Tris-HCl, 145 mM NaCl, pH 7.4); for α2 receptors, α2 Binding Buffer (50 mM Tris-HCl, 5 mM MgCl2, pH 7.7); for β receptors, β Binding Buffer (50 mM Tris-HCl, 3 mM MnCl2, pH 7.7) Membrane Fraction Source: Transiently or stably transfected cell lines (e.g. HEK293, COS, CHO, NIH3T3) Protocol adapted from Arango et al. […] (1990), Gen. Psychiatry, 47: 1038-1047. The method is carried out in the manner described for the serotonin receptor assay above, except where described below. Eleven dilutions (5× assay concentration) of the test and reference (see Table 20) compounds are prepared in the appropriate buffer by serial dilution, as previously described. Radioligand is diluted to five times the assay concentration (see Table 21) in the appropriate buffer. […] Four rapid 500-μl washes are performed with chilled distilled water (for α1 and β receptors) or 0.1% polyethyleneimine (for α2 receptors) to reduce non-specific binding. Filters are placed in 6 ml scintillation tubes and allowed to dry overnight and the samples are treated to obtain data as described above. [table]
Alpha1B adrenergic receptor, sequence (P35368 whole entry): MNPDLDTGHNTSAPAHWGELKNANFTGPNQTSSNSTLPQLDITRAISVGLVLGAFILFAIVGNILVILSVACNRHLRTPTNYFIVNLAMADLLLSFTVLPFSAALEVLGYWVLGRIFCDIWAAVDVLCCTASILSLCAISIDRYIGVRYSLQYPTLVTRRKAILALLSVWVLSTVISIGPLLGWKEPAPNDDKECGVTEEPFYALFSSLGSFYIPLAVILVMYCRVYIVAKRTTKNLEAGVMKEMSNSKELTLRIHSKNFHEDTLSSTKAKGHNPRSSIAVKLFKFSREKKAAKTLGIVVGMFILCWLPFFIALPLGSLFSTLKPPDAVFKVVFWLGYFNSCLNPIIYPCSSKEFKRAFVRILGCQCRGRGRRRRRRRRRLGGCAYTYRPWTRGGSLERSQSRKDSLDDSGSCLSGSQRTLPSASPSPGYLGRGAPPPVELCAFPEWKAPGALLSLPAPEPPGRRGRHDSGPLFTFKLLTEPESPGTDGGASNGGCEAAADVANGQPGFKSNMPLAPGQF

Experiment [2] addresses 5HT5 receptor (Homo sapiens (Human), UniProt P47898). Put plainly: Secondary radioligand binding assay, 5HT5.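 Further: competitive radioligand displacement on membranes from transfected cell lines, incubated at room temperature in the dark, filter-retained radioactivity counted by liquid scintillation.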 More on the design: key: “—” indicates that a binding interaction was not detected.
Description: (§1) Assay Buffer: Standard Binding Buffer (50 mM Tris-HCl, 10 mM MgCl2, 1 mM EDTA, pH 7.4)
(§2) Membrane Fraction Source: Transiently or stably transfected cell lines (e.g., HEK293, COS, CHO, NIH3T3)
Experiment [3] addresses 5HT6 receptor (Homo sapiens (Human), UniProt P50406). Description: Secondary radioligand binding assay, 5HT6.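 Further: competition displacement of radioligand from membranes of transfected cell lines expressing the receptor, 1.5 h at room temperature, bound radioactivity counted by scintillation after filtration.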 More on the design: key: “—” indicates that a binding interaction was not detected.
Description: as §1, §2
Experiment [4] concerns the target 5HT7 receptor (Homo sapiens (Human), UniProt P34969). Put plainly: Secondary radioligand binding assay, 5HT7.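 Further: competition of test compound with radioligand for binding to membranes from transfected cell lines, 1.5 h incubation at room temperature, filter-bound radioactivity read by liquid scintillation.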 More on the design: key to Ki 5HT7: “—” indicates that a binding interaction was not detected.
Description: as §1, §2
Experiment [5] concerns the target dopamine D5 receptor (Homo sapiens (Human), UniProt P21918). Put plainly: Secondary radioligand binding assay, D5. More on the design: key to Ki D5: “—” indicates that a binding interaction was not detected. Here is the method: 1. Secondary Radioligand Binding Assays
The detailed experimental protocols for the radioligand and functional receptor assays are available on the NIMH PDSP website at http://pdsp.med.unc.edu/UNC-CH %20Protocol %20Book.pdf.
Radioligand is diluted to five times the assay concentration (see Table 18) in Standard Binding Buffer. Typically, the assay concentration of radioligand is a value between one half the KD and the KD of a particular radioligand at its target. 50 μl aliquots of radioligand are dispensed into the wells of a 96-well plate containing 100 μl of Standard Binding Buffer. Then, duplicate 50 μl aliquots of the test and reference compound dilutions are added.
The 250 μl reactions are incubated at room temperature and shielded from light (to prevent photolysis of light-sensitive ligands) for 1.5 hours, then harvested by rapid filtration onto Whatman GF/B glass fiber filters pre-soaked with 0.3% polyethyleneimine using a 96-well Brandel harverster. Four rapid 500 μl washes are performed with chilled Standard Binding Buffer to reduce non-specific binding. Filters are placed in 6 ml scintillation tubes and allowed to dry overnight. The next day, 4 ml of EcoScint scintillation cocktail (National Diagnostics) are added to each tube. The tubes are capped, labeled, and counted by liquid scintillation counting. […] The filter mats are dried, then scintillant is melted onto the filters and the radioactivity retained on the filters is counted in a Microbeta scintillation counter.
Raw data (dpm) representing total radioligand binding (i.e. specific+non-specific binding) are plotted as a function of the logarithm of the molar concentration of the competitor (i.e. test or reference compound).
B. Dopamine Receptors: D1, D2, D3, D4, D5 Assay Buffers: Dopamine Binding Buffer (50 mM NaCl, 50 mM HEPES-HCl, 5 mM MgCl2, 0.5 mM EDTA, pH 7.4) Membrane Fraction Source: Transiently or stably transfected cell lines (e.g. HEK293, COS, CHO, NIH3T3)
The method is carried out in the manner described for the serotonin receptor assay above. Eleven dilutions (5× assay concentration) of the test and reference (see Table 19) compounds are prepared in Dopamine Binding Buffer by serial dilution, as previously described. Radioligand is diluted to five times the assay concentration (see Table 20) in Dopamine Binding Buffer.

5HT5 receptor, sequence (P47898 whole entry): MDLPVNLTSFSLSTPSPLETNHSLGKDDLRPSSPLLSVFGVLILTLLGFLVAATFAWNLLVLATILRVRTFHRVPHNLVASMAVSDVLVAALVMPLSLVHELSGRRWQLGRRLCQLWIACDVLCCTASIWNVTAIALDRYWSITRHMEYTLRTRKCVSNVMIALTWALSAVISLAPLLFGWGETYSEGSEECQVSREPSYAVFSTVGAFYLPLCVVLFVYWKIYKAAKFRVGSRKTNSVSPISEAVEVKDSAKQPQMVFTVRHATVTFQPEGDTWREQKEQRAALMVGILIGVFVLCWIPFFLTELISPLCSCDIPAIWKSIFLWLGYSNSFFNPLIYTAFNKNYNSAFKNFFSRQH
5HT7 receptor, sequence (P34969 whole entry): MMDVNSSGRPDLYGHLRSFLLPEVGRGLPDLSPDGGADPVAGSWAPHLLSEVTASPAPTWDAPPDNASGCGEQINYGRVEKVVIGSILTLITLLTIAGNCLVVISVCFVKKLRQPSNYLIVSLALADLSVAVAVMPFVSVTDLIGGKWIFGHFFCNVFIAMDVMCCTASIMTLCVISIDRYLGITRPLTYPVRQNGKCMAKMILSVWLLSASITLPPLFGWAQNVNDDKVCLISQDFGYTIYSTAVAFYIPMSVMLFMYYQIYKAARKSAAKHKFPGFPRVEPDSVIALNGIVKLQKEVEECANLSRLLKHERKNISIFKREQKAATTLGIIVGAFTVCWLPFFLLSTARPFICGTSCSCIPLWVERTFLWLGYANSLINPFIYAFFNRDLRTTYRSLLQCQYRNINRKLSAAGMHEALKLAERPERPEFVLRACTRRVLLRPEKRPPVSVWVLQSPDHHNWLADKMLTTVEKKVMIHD
dopamine D5 receptor, sequence (P21918 whole entry): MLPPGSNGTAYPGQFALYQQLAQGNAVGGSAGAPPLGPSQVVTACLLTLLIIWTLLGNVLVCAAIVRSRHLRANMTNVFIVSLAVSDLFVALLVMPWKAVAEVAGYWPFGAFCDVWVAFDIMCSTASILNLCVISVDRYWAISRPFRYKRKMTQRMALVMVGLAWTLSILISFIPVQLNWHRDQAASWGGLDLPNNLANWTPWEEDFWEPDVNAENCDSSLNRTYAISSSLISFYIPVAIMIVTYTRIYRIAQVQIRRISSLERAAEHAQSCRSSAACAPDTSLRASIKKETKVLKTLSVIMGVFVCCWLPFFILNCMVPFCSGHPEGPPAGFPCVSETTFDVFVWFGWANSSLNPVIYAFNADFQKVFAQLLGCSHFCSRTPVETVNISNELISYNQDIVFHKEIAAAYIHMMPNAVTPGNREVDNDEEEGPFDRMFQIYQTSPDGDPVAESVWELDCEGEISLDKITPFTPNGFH
5HT6 receptor, sequence (P50406 whole entry): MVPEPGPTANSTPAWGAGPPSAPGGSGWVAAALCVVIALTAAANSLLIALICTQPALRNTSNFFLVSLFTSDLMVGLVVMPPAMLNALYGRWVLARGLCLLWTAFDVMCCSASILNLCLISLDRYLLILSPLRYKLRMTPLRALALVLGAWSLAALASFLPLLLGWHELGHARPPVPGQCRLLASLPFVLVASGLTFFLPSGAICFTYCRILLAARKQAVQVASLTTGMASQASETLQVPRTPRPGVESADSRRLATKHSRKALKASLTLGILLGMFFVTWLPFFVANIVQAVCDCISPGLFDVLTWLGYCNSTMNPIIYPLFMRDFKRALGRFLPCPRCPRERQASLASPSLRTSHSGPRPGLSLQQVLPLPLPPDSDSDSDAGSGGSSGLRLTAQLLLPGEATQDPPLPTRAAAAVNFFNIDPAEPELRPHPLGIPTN

Take `O=C(CN1CCO[C@@H](COc2ccccn2)C1)N1CCc2ccccc21` [Compound 14r, (R)-1-(Indolin-1-yl)-2-(2-((pyridin-2-yloxy)methyl)morpholino)ethanone]: the “Ki Alpha1B” value in experiment [1] was “—”. Further, the “Ki 5HT5” value in experiment [2] is “—”. Also, the “Ki 5HT6” value in experiment [3] is given as “—”. The “Ki 5HT7” value in experiment [4] is recorded as “—”. Moreover, the “Ki D5” value in experiment [5] is “—”.
For `c1ccc(OC[C@H]2CN(CCN3CCc4ccccc43)CCO2)nc1` [Compound 15r, (R)-4-(2-(Indolin-1-yl)ethyl)-2-((pyridin-2-yloxy)methyl)morpholine], the “Ki Alpha1B” value in experiment [1] is on record as “—”. For the same compound, the “Ki 5HT5” value in experiment [2] is listed as “—”. The “Ki 5HT6” value in experiment [3] is “—”. In addition, the “Ki 5HT7” value in experiment [4] is “—”. In addition, the “Ki D5” value in experiment [5] is “—”.
For the compound `Cc1ccnc(OC[C@H]2CN(CC(=O)N3CCc4ccccc43)CCO2)c1` [Compound 16r], in experiment [1], the “Ki Alpha1B” value was “—”. Moreover, the “Ki 5HT5” value in experiment [2] is given as “—”. Also, in experiment [3], the “Ki 5HT6” value was “—”. Further, in experiment [4], the “Ki 5HT7” value is given as “—”. Further, the “Ki D5” value in experiment [5] was “—”.
For the compound `Cc1ccnc(OC[C@H]2CN(CCN3CCc4ccccc43)CCO2)c1` [Compound 17r, (R)-4-(2-(Indolin-1-yl)ethyl)-2-(((4-methylpyridin-2-yl)oxy)methyl)morpholine], the “Ki Alpha1B” value in experiment [1] is on record as “—”. Further, the “Ki 5HT5” value in experiment [2] is recorded as “—”. The “Ki 5HT6” value in experiment [3] is recorded as “—”. The “Ki 5HT7” value in experiment [4] is “—”. Moreover, the “Ki D5” value in experiment [5] is given as “—”.
Consider `O=C(CN1CCO[C@H](COc2ccccc2)C1)N1CCc2ccccc21` [Compound 18s, (S)-1-(Indolin-1-yl)-2-(2-(phenoxymethyl)morpholino)ethanone], for which the “Ki Alpha1B” value in experiment [1] is listed as “—”. Moreover, the “Ki 5HT5” value in experiment [2] is “—”. For the same compound, the “Ki 5HT6” value in experiment [3] was “—”. Also, the “Ki 5HT7” value in experiment [4] is “—”. For the same compound, in experiment [5], the “Ki D5” value was “—”.
`c1ccc(OC[C@@H]2CN(CCN3CCc4ccccc43)CCO2)cc1` [Compound 19s, (S)-4-(2-(Indolin-1-yl)ethyl)-2-(phenoxymethyl)morpholine]: the Ki in experiment [1] amounted to 7.21 µM; in experiment [4], 0.468 µM. In addition, the “Ki 5HT5” value in experiment [2] is recorded as “—”. In addition, the “Ki 5HT6” value in experiment [3] is “—”. The “Ki D5” value in experiment [5] is given as “—”.
In the case of `O=C(CN1CCO[C@@H](COc2cccnc2)C1)N1CCc2ccccc21` [Compound 20r, (R)-1-(Indolin-1-yl)-2-(2-((pyridin-3-yloxy)methyl)morpholino)ethanone], the “Ki Alpha1B” value in experiment [1] was “—”. Moreover, the “Ki 5HT5” value in experiment [2] is “—”. In addition, in experiment [3], the “Ki 5HT6” value was “—”. For the same compound, the “Ki 5HT7” value in experiment [4] is listed as “—”. In addition, the “Ki D5” value in experiment [5] is given as “—”.
Turning to `O=C(CN1CCO[C@H](COc2cccnc2)C1)N1CCc2ccccc21` [Compound 20s, (S)-1-(Indolin-1-yl)-2-(2-((pyridin-3-yloxy)methyl)morpholino)ethanone], in experiment [1], the “Ki Alpha1B” value is recorded as “—”. The “Ki 5HT5” value in experiment [2] is reported as “—”. In addition, the “Ki 5HT6” value in experiment [3] is given as “—”. The “Ki 5HT7” value in experiment [4] is “—”. In addition, the “Ki D5” value in experiment [5] was “—”.
Turning to `c1cncc(OC[C@H]2CN(CCN3CCc4ccccc43)CCO2)c1` [Compound 21r, (R)-4-(2-(Indolin-1-yl)ethyl)-2-((pyridin-3-yloxy)methyl)morpholine], in experiment [1], the “Ki Alpha1B” value is reported as “—”. Besides, in experiment [2], the “Ki 5HT5” value is “—”. Moreover, the “Ki 5HT6” value in experiment [3] is given as “—”. Besides, the “Ki 5HT7” value in experiment [4] is “—”. Also, the “Ki D5” value in experiment [5] is “—”.
For the compound `c1cncc(OC[C@@H]2CN(CCN3CCc4ccccc43)CCO2)c1` [Compound 21s, (S)-4-(2-(Indolin-1-yl)ethyl)-2-((pyridin-3-yloxy)methyl)morpholine], the “Ki Alpha1B” value in experiment [1] is recorded as “—”. In experiment [2], the “Ki 5HT5” value was “—”. In addition, the “Ki 5HT6” value in experiment [3] is recorded as “—”. In addition, in experiment [4], the “Ki 5HT7” value was “—”. Further, in experiment [5], the Ki is greater than 10 µM.
